The results in this text go back to US10611740B2, “Aryl dihydro-2H-benzo[b][1,4]oxazine sulfonamide and related compounds for use as agonists of RORγ and the treatment of disease” (Lycera Corporation, priority 2015, dated 2020).

A word on the EC50: it is the concentration needed to bring the measured effect to its halfway point. A lower EC50 goes with higher potency in that assay.

The structures appear in SMILES notation. A value given as a limit tells only on which side of the number the result lay.

The target in test [1] is T1, RORγ-LBD (Homo sapiens, UniProt P51449).
T1 construct: made in house; host or cells: SF9 cells (baculovirus)
T1 sequence (P51449 269-508 limits assumed): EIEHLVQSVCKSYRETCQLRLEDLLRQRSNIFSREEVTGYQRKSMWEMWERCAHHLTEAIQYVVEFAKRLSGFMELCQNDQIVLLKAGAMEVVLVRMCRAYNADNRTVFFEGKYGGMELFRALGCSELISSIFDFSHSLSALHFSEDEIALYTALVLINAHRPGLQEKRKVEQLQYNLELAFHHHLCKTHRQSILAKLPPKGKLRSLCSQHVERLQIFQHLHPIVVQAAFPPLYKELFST
The test can be described thus: RORγ-Ligand Binding Domain (LBD) TR-FRET Assay.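 For TR-FRET Assay Max Response: 665/615 nm ratio relative to signal without ursolic acid or compound set at 100.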 In kind it is biochemical. The method, boiled down:
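TR-FRET read-out using a biotin-tagged SRC1 coactivator LXXLL peptide (200 nM final), with the antagonist ursolic acid present at 2 μM final. Receptor is His-tagged LBD expressed in SF9 cells, ~3 nM final in pH 7.0 Tris/KCl/EDTA/DTT/BSA buffer; compounds in 1% DMSO final.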
Background: TR-FRET usually uses a lanthanide donor and a delayed reading to cut background.

Test [2] deals with T2, Gal4-RORγ-LBD (Homo sapiens, UniProt P51449).
T2 construct: expressed in transfected cells; host or cells: HEK-293 cells (pcDNA3.1neo plasmid)
T2 sequence (P51449 269-508 limits assumed): T1 sequence (P51449 269-508 limits assumed)
The experiment in a line: Gal4-RORγ Luciferase Reporter Assay in HEK-293T Cells. The conditions noted are these: HEK-293 cells. The class given is cell-based. The essentials: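 Luminescence read-out (One-Glo, 10 min RT) after overnight compound exposure at 37 °C in HEK-293 cells carrying Gal4-RORγ-LBD plus a Gal4-luciferase reporter, in the presence of 2 μM ursolic acid. Max Response is the upper plateau from a 4-parameter logistic fit, normalized to untreated signal = 100.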
In general terms: Reporter assays use an easily measured gene product as a stand-in for the process of interest.

Where [3] appears, read: luciferase reporter, with 2 μM ursolic acid.

`O=C(O)CC[C@H]1CN(S(=O)(=O)c2cccc(C(F)(F)F)c2)c2cc(-c3cccc(Cl)c3)cc(F)c2O1` [Compound 8, (S)-3-(6-(3-chlorophenyl)-8-fluoro-4-((3-(trifluoromethyl)phenyl)sulfonyl)-3,4-dihydro-2H-benzo[b][1,4]oxazin-2-yl)propanoic acid]: in test [1], the EC50 was less than 0.5 µM and the “TR-FRET Assay Max Response” value is reported as “**** (The symbol “****” indicates a value greater than 200)”. Further, in test [2] (setting [3]), the EC50 is less than 0.5 µM and the “Gal4-RORγ Assay Max Response” value was “** (The symbol “**” indicates a value in the range of greater than 90 to 150)”.
For the molecule `C[C@H](O)C(=O)NC[C@H]1CN(S(=O)(=O)c2cccc(C(F)(F)F)c2)c2cc(-c3cc(F)ccc3F)ccc2O1` [Compound 30AE, (S)-N-(((S)-6-(2,5-difluoro-phenyl)-4-((3-(trifluoromethyl)-phenyl)sulfonyl)-3,4-dihydro-2H-benzo[b][1,4]oxazin-2-yl)-methyl)-2-hydroxypropanamide], in test [1], the EC50 is less than 0.5 µM and the “TR-FRET Assay Max Response” value is recorded as “*** (The symbol “***” indicates a value in the range of greater than 150 to 200)”. For the same molecule, in test [2] (setting [3]), the EC50 was less than 0.5 µM and the “Gal4-RORγ Assay Max Response” value was “** (The symbol “**” indicates a value in the range of greater than 90 to 150)”.
For `C[C@]1(C(=O)O)C[C@H](C[C@H]2CN(S(=O)(=O)c3cccc(C(F)(F)F)c3)c3cc(-c4cccc(C(F)(F)F)n4)ccc3O2)C1` [Compound 60N, (1S,3r)-1-methyl-3-(((S)-4-((3-(trifluoromethyl)phenyl)-sulfonyl)-6-(6-(trifluoro-methyl)pyridin-2-yl)-3,4-dihydro-2H-benzo[b][1,4]-oxazin-2-yl)methyl)cyclobutane-1-carboxylic acid], in test [1], the EC50 was less than 0.5 µM and the “TR-FRET Assay Max Response” value is recorded as “** (The symbol “**” indicates a value in the range of greater than 90 to 150)”. Further, in test [2] (2 μM ursolic acid), the EC50 is less than 0.5 µM and the “Gal4-RORγ Assay Max Response” value is “** (The symbol “**” indicates a value in the range of greater than 90 to 150)”.
For `COc1cc(F)c(F)c(-c2ccc3c(c2)N(S(=O)(=O)c2cccc(C(F)(F)F)c2)C[C@H](CCC(=O)O)O3)c1` [Compound 4AR, (S)-3-(6-(2,3-difluoro-5-methoxyphenyl)-4-((3-(trifluoromethyl)phenyl)sul-fonyl)-3,4-dihydro-2H-benzo[b][1,4]oxazin-2-yl)propanoic acid], in test [1], the EC50 is less than 0.5 µM and the “TR-FRET Assay Max Response” value was “**** (The symbol “****” indicates a value greater than 200)”. Moreover, in test [2] (setting [3]), the EC50 was less than 0.5 µM and the “Gal4-RORγ Assay Max Response” value is “** (The symbol “**” indicates a value in the range of greater than 90 to 150)”.
For `O=C(O)C1CCN(C(=O)CC[C@H]2CN(S(=O)(=O)c3cccc(C(F)(F)F)c3)c3cc(-c4cccc(Cl)c4)ccc3O2)CC1` [Compound 23C, (S)-1-(3-(6-(3-chlorophenyl)-4-((3-(trifluoromethyl)phenyl)-sulfonyl)-3,4-dihydro-2H-benzo[b][1,4]oxazin-2-yl)propanoyl)piperidine-4-carboxylic acid], in test [1], the EC50 is less than 0.5 µM and the “TR-FRET Assay Max Response” value is reported as “*** (The symbol “***” indicates a value in the range of greater than 150 to 200)”. In test [2] (setting [3]), the EC50 is less than 0.5 µM and the “Gal4-RORγ Assay Max Response” value was “** (The symbol “**” indicates a value in the range of greater than 90 to 150)”.
`O=C(O)CC[C@H]1CN(S(=O)(=O)c2cccc(C(F)(F)F)c2)c2cc(-c3cc(F)cc(Cl)c3F)ccc2O1` [Compound 4AY, (S)-3-(6-(3-chloro-2,5-difluorophenyl)-4-((3-(trifluoromethyl)phenyl)-sulfonyl)-3,4-dihydro-2H-benzo[b][1,4]oxazin-2-yl)propanoic acid]: in test [1], the EC50 was less than 0.5 µM and the “TR-FRET Assay Max Response” value was “*** (The symbol “***” indicates a value in the range of greater than 150 to 200)”. In test [2] (setting [3]), the EC50 is less than 0.5 µM and the “Gal4-RORγ Assay Max Response” value is “** (The symbol “**” indicates a value in the range of greater than 90 to 150)”.
On to `COc1cccc(-c2ccc3c(c2)N(S(=O)(=O)c2cccc(C(F)(F)F)c2)C[C@H](CC(C)(C)C(=O)O)O3)c1` [Compound 32B, (S)-3-(6-(3-methoxyphenyl)-4-((3-(trifluoromethyl)phenyl)sulfonyl)-3,4-dihydro-2H-benzo[b][1,4]oxazin-2-yl)-2,2-dimethylpropanoic acid], for which, in test [1], the EC50 is less than 0.5 µM and the “TR-FRET Assay Max Response” value is “*** (The symbol “***” indicates a value in the range of greater than 150 to 200)”. In addition, in test [2] (setting [3]), the EC50 is less than 0.5 µM and the “Gal4-RORγ Assay Max Response” value is given as “** (The symbol “**” indicates a value in the range of greater than 90 to 150)”.
Regarding `CC(C)(O)C(=O)NCC[C@H]1CN(S(=O)(=O)c2cccc(C(F)(F)F)c2)c2cc(-c3cccc(C(F)(F)F)n3)ccc2O1` [Compound 30B, (S)-2-hydroxy-2-methyl-N-(2-(4-((3-(trifluoromethyl)phenyl)-sulfonyl)-6-(6-(trifluoromethyl)-pyridin-2-yl)-3,4-dihydro-2H-benzo[b][1,4]oxazin-2-yl)ethyl)propanamide], in test [1], the EC50 was less than 0.5 µM and the “TR-FRET Assay Max Response” value is “**** (The symbol “****” indicates a value greater than 200)”. Further, in test [2] (setting [3]), the EC50 is less than 0.5 µM and the “Gal4-RORγ Assay Max Response” value is “** (The symbol “**” indicates a value in the range of greater than 90 to 150)”.
With `O=C(O)CCC[C@H]1CN(S(=O)(=O)c2cccc(C(F)(F)F)c2)c2cc(-c3cccc(C(F)(F)F)n3)ccc2O1` [Compound 21C, (S)-4-(4-((3-(trifluoromethyl)-phenyl)sulfonyl)-6-(6-(trifluoromethyl)pyridin-2-yl)-3,4-dihydro-2H-benzo[b][1,4]oxazin-2-yl)butanoic acid], in test [1], the EC50 was less than 0.5 µM and the “TR-FRET Assay Max Response” value is recorded as “**** (The symbol “****” indicates a value greater than 200)”. Further, in test [2] (setting [3]), the EC50 was less than 0.5 µM and the “Gal4-RORγ Assay Max Response” value is listed as “*** (The symbol “***” indicates a value in the range of greater than 150 to 200)”.
As for `O=C(O)CNC(=O)CC[C@H]1CN(S(=O)(=O)c2cccc(C(F)(F)F)c2)c2cc(-c3cccc(C(F)(F)F)n3)ccc2O1` [Compound 23J, (S)-(3-(4-((3-(trifluoromethyl)-phenyl)sulfonyl)-6-(6-(trifluoromethyl)pyridin-2-yl)-3,4-dihydro-2H-benzo[b][1,4]oxazin-2-yl)propanoyl)glycine], in test [1], the EC50 is less than 0.5 µM and the “TR-FRET Assay Max Response” value was “**** (The symbol “****” indicates a value greater than 200)”. In addition, in test [2] (setting [3]), the EC50 fell in the range of 5 to 10 µM and the “Gal4-RORγ Assay Max Response” value is reported as “*** (The symbol “***” indicates a value in the range of greater than 150 to 200)”.
On to `O=C(O)CC[C@H]1CN(S(=O)(=O)c2cccc(C(F)(F)F)c2)c2cc(-c3cccc(Cl)c3Cl)ccc2O1` [Compound 2AL, (S)-3-(6-(2,3-dichlorophenyl)-4-((3-(trifluoromethyl)phenyl)-sulfonyl)-3,4-dihydro-2H-benzo[b][1,4]oxazin-2-yl)propanoic acid], for which, in test [1], the EC50 was less than 0.5 µM and the “TR-FRET Assay Max Response” value is “**** (The symbol “****” indicates a value greater than 200)”. Moreover, in test [2] (setting [3]), the EC50 is less than 0.5 µM and the “Gal4-RORγ Assay Max Response” value is reported as “*** (The symbol “***” indicates a value in the range of greater than 150 to 200)”.
Consider `O=C(NC[C@H]1CN(S(=O)(=O)c2cccc(C(F)(F)F)c2)c2cc(-c3cc(F)ccc3F)ccc2O1)[C@H]1C[C@H]1F` [Compound 30AN, (1R,2R)-N-(((S)-6-(2,5-difluoro-phenyl)-4-((3-(trifluoromethyl)-phenyl)sulfonyl)-3,4-dihydro-2H-benzo[b][1,4]oxazin-2-yl)methyl)-2-fluorocyclo-propane-1-carboxamide], for which, in test [1], the EC50 is less than 0.5 µM and the “TR-FRET Assay Max Response” value is given as “**** (The symbol “****” indicates a value greater than 200)”. Besides, in test [2] (setting [3]), the EC50 was less than 0.5 µM and the “Gal4-RORγ Assay Max Response” value is given as “** (The symbol “**” indicates a value in the range of greater than 90 to 150)”.
As to `O=C(O)[C@H]1C[C@H](C[C@H]2CN(S(=O)(=O)c3cccc(C(F)(F)F)c3)c3cc(-c4cc(F)cc(OC(F)F)c4)ccc3O2)C1` [Compound 59, (1S,3r)-3-(((S)-6-(3-(difluoromethoxy)-5-fluorophenyl)-4-((3-(trifluoromethyl)phenyl)sulfonyl)-3,4-dihydro-2H-benzo[b][1,4]oxazin-2-yl)methyl)cyclobutane-1-carboxylic acid], in test [1], the EC50 was less than 0.5 µM and the “TR-FRET Assay Max Response” value is reported as “*** (The symbol “***” indicates a value in the range of greater than 150 to 200)”. Also, in test [2] (2 μM ursolic acid), the EC50 is less than 0.5 µM and the “Gal4-RORγ Assay Max Response” value is reported as “** (The symbol “**” indicates a value in the range of greater than 90 to 150)”.
